Test results published in patent publication US9827189B2, “Stable parenteral DNJ compositions” (AMICUS THERAPEUTICS, INC., priority 2013, dated 2017).
Structures can show the parent of a compound that is named as a salt.

Assays:
[1] = Osmolality of 1-DNJ-HCl in sodium citrate buffer by freezing point; format: physicochemical
Method: The molallity of 1-deoxynojirimycin chloride (1-DNJ-HCl) was determined by freezing point depreciation. 1-deoxynojirimycin chloride concentration ranged from 30 mg/mL to 60 mg/mL. Sodium citrate concentration ranged from 20 to 50 mM.

[2] = system: cynomolgus monkey whole blood; assay: Hemolytic potential in cynomolgus monkey whole blood; format: cell-based; conditions: 37 ° C. 30 minutes
Method: 1-DNJ-HCl was dissolved in sodium citrate buffer. 1-DNJ-HCl concentration was 30 mg/mL (resulting free 1-DNJ concentration was 25 mg/mL); sodium citrate buffer concentration was 50 mM at pH 5.0. 1-DNJ-HCl formulation was added to whole blood samples of male human, rat, and cynomolgus monkey. […]. Buffer served as a negative control, while Triton-X 100 (Lysing agent) served as a positive control. Additionally blood sample without any additions was used as a negative control. The samples were stored at 4° C. Blood samples were incubated at 37 ° C. for 30 minutes with the 1-DNJ-HCl formulation, after which the samples were centrifuged. The amount of hemoglobin in the supernatant from each centrifuged sample was measured using a commercially available hemoglobin assay kit (BioAssay Systems, QuantiChrom™ Hemoglobin Assay Kit) and the Tecan microplate reader.

## OC[C@H]1NC[C@H](O)[C@@H](O)[C@@H]1O [1-DNJ-HCl, 1-deoxynojirimycin hydrochloride]
[1]; 1-DNJ-HCl 30 mg/mL, Sodium Citrate Buffer 20 mM
  Osmolality: 311 mOsm/kg
[1]; 1-DNJ-HCl 30 mg/mL, Sodium Citrate Buffer 25 mM
  Osmolality: 327 mOsm/kg
[1]; 1-DNJ-HCl 30 mg/mL, Sodium Citrate Buffer 30 mM
  Osmolality: 343 mOsm/kg
[1]; 1-DNJ-HCl 30 mg/mL, Sodium Citrate Buffer 35 mM
  Osmolality: 358 mOsm/kg
[1]; 1-DNJ-HCl 30 mg/mL, Sodium Citrate Buffer 40 mM
  Osmolality: 374 mOsm/kg
[1]; 1-DNJ-HCl 30 mg/mL, Sodium Citrate Buffer 45 mM
  Osmolality: 389 mOsm/kg
[1]; 1-DNJ-HCl 35 mg/mL, Sodium Citrate Buffer 20 mM
  Osmolality: 353 mOsm/kg
[1]; 1-DNJ-HCl 35 mg/mL, Sodium Citrate Buffer 25 mM
  Osmolality: 369 mOsm/kg
[1]; 1-DNJ-HCl 35 mg/mL, Sodium Citrate Buffer 30 mM
  Osmolality: 384 mOsm/kg
[1]; 1-DNJ-HCl 35 mg/mL, Sodium Citrate Buffer 35 mM
  Osmolality: 400 mOsm/kg
[1]; 1-DNJ-HCl 35 mg/mL, Sodium Citrate Buffer 40 mM
  Osmolality: 415 mOsm/kg
[1]; 1-DNJ-HCl 35 mg/mL, Sodium Citrate Buffer 45 mM
  Osmolality: 431 mOsm/kg
[1]; 1-DNJ-HCl 35 mg/mL, Sodium Citrate Buffer 50 mM
  Osmolality: 447 mOsm/kg
[1]; 1-DNJ-HCl 40 mg/mL, Sodium Citrate Buffer 20 mM
  Osmolality: 394 mOsm/kg
[1]; 1-DNJ-HCl 40 mg/mL, Sodium Citrate Buffer 25 mM
  Osmolality: 410 mOsm/kg
[1]; 1-DNJ-HCl 40 mg/mL, Sodium Citrate Buffer 30 mM
  Osmolality: 426 mOsm/kg
[1]; 1-DNJ-HCl 40 mg/mL, Sodium Citrate Buffer 35 mM
  Osmolality: 441 mOsm/kg
[1]; 1-DNJ-HCl 40 mg/mL, Sodium Citrate Buffer 40 mM
  Osmolality: 457 mOsm/kg
[1]; 1-DNJ-HCl 40 mg/mL, Sodium Citrate Buffer 45 mM
  Osmolality: 472 mOsm/kg
[1]; 1-DNJ-HCl 40 mg/mL, Sodium Citrate Buffer 50 mM
  Osmolality: 488 mOsm/kg
[1]; 1-DNJ-HCl 45 mg/mL, Sodium Citrate Buffer 20 mM
  Osmolality: 436 mOsm/kg
[1]; 1-DNJ-HCl 45 mg/mL, Sodium Citrate Buffer 25 mM
  Osmolality: 452 mOsm/kg
[1]; 1-DNJ-HCl 45 mg/mL, Sodium Citrate Buffer 30 mM
  Osmolality: 467 mOsm/kg
[1]; 1-DNJ-HCl 45 mg/mL, Sodium Citrate Buffer 35 mM
  Osmolality: 483 mOsm/kg
[1]; 1-DNJ-HCl 45 mg/mL, Sodium Citrate Buffer 40 mM
  Osmolality: 498 mOsm/kg
[1]; 1-DNJ-HCl 45 mg/mL, Sodium Citrate Buffer 45 mM
  Osmolality: 514 mOsm/kg
[1]; 1-DNJ-HCl 45 mg/mL, Sodium Citrate Buffer 50 mM
  Osmolality: 530 mOsm/kg
[1]; 1-DNJ-HCl 50 mg/mL, Sodium Citrate Buffer 20 mM
  Osmolality: 477 mOsm/kg
[1]; 1-DNJ-HCl 50 mg/mL, Sodium Citrate Buffer 25 mM
  Osmolality: 493 mOsm/kg
[1]; 1-DNJ-HCl 50 mg/mL, Sodium Citrate Buffer 30 mM
  Osmolality: 509 mOsm/kg
[1]; 1-DNJ-HCl 50 mg/mL, Sodium Citrate Buffer 35 mM
  Osmolality: 524 mOsm/kg
[1]; 1-DNJ-HCl 50 mg/mL, Sodium Citrate Buffer 40 mM
  Osmolality: 540 mOsm/kg
[1]; 1-DNJ-HCl 50 mg/mL, Sodium Citrate Buffer 45 mM
  Osmolality: 555 mOsm/kg
[1]; 1-DNJ-HCl 50 mg/mL, Sodium Citrate Buffer 50 mM
  Osmolality: 571 mOsm/kg
[1]; 1-DNJ-HCl 55 mg/mL, Sodium Citrate Buffer 20 mM
  Osmolality: 519 mOsm/kg
[1]; 1-DNJ-HCl 55 mg/mL, Sodium Citrate Buffer 25 mM
  Osmolality: 535 mOsm/kg
[1]; 1-DNJ-HCl 55 mg/mL, Sodium Citrate Buffer 30 mM
  Osmolality: 550 mOsm/kg
[1]; 1-DNJ-HCl 55 mg/mL, Sodium Citrate Buffer 35 mM
  Osmolality: 566 mOsm/kg
[1]; 1-DNJ-HCl 55 mg/mL, Sodium Citrate Buffer 40 mM
  Osmolality: 581 mOsm/kg
[1]; 1-DNJ-HCl 55 mg/mL, Sodium Citrate Buffer 45 mM
  Osmolality: 597 mOsm/kg
[1]; 1-DNJ-HCl 55 mg/mL, Sodium Citrate Buffer 50 mM
  Osmolality: 613 mOsm/kg
[1]; 1-DNJ-HCl 60 mg/mL, Sodium Citrate Buffer 20 mM
  Osmolality: 560 mOsm/kg
[1]; 1-DNJ-HCl 60 mg/mL, Sodium Citrate Buffer 25 mM
  Osmolality: 576 mOsm/kg
[1]; 1-DNJ-HCl 60 mg/mL, Sodium Citrate Buffer 30 mM
  Osmolality: 592 mOsm/kg
[1]; 1-DNJ-HCl 60 mg/mL, Sodium Citrate Buffer 35 mM
  Osmolality: 607 mOsm/kg
[1]; 1-DNJ-HCl 60 mg/mL, Sodium Citrate Buffer 40 mM
  Osmolality: 623 mOsm/kg
[1]; 1-DNJ-HCl 60 mg/mL, Sodium Citrate Buffer 45 mM
  Osmolality: 638 mOsm/kg
[1]; 1-DNJ-HCl 60 mg/mL, Sodium Citrate Buffer 50 mM
  Osmolality: 654 mOsm/kg
[2]; 500 μL blood mixed with 500 μL sample (30 mg/mL AT2220 or 0.1% Triton X-100)
  % RBC lysis: 0.1%
[2]; 500 μL blood mixed with 500 μL sample, 30 mg/mL AT2220 dilution 1, 0.1% Triton X-100 dilution 100
  Avg OD (n = 4): 0.0649
